# Reference: US20190060384A1, “COMPOSITION FOR TREATMENT OR PREVENTION OF LUNG CANCER AND A METHOD THEREFORE” (priority 2017, published 2019)
# What was measured:
# [1] = mouse, in vivo, po
# Text: (§1) Day 28; mortality, clinical symptoms, change in body weight, autopsy findings, hematological (14 items; Table 18) and hematochemical (20 items; Table 19) changes, histopathological changes (23 organs: brain cerebrum, cerebellum and bulbar, heart, thymus, lung, testis, epididymis, kidney, adrenal gland, spleen, liver, pancreas, alimentary tract esophagus, fundic portion, pyloric portion, duodenum, jejunum, ileum, cecum, colon and rectum, submandibular lymph node), and changes in content of liver lipid peroxidation and antioxidant defense system glutathione (GSH), and catalase (CAT) and superoxide dismutase (SOD) activities.
# [2] = male, ICR, mouse, in vivo, po, 28 days
# Text: as §1
# [3] = test system: NCI-H520 cell xenograft nude mice; assay: NCI-H520 xenograft nude mice: serum IL-6 and IFN-γ contents; assay type: in vivo, athymic nude mice; conditions: vs tumor xenograft control, 35 days
# Text: (3) Effects of suppressing tumor-related cachexia: Changes in body weight, periovarian fat pad weight, and serum IL-6 content and histological change in a periovarian fat pad
# [4] = mouse, in vivo, po; remark: listed apart in the source
# Text: as §1
# [5] = Pharmacokinetics of gefitinib after repeated oral Lonicera flos; assay type: in vivo, Sprague-Dawley rats; conditions: for concentration at 0.5 h: 0.50 h; for AUC(0-t) / Cmax / Tmax / half-life: po, average
# [6] = test system: NCI-H520 non-small cell lung cancer cell xenograft; assay: NCI-H520 xenograft nude mice: tumor volume and tumor weight; assay type: in vivo, athymic nude mice
# Text: (1) Anticancer effects: Changes in tumor volume, tumor weight, tumor cell volume in a formed mass, and apoptotic cell percentages, and changes in immunoreactivities of caspase-3, PARP, NT, 4-HNE, CD31, Ki-67, COX-2, iNOS, and TNF-α in the formed mass
# [7] = test system: NCI-H520 cell xenograft nude mice; assay: NCI-H520 xenograft nude mice: immune organ weights and histopathology (spleen, submandibular lymph node); assay type: in vivo, athymic nude mice
# [8] = test system: NCI-H520 cell xenograft nude mice; assay: NCI-H520 xenograft nude mice: splenic cytokine contents (TNF-α, IL-1β, IL-10); assay type: in vivo, athymic nude mice
# [9] = test system: liver lipid peroxidation, GSH, CAT, SOD; conditions: mouse, in vivo, po
# Text: as §1
# [10] = male, ICR, mouse, in vivo, po, 28 days; remark: listed apart in the source
# Text: as §1
# NCI-H520 cells = assay: MTT cytotoxicity (cell viability)
# Text: Further, in order to observe the effects on tumor-related cachexia, a change in periovarian fat pad weight and a change in serum IL-6 content were observed, the changes in thickness of periovarian fat pad and diameter of adipocytes were each histopathologically observed, and in a tumor mass formed, the immunoreactivities of cleaved caspase-3 and poly(ADPribose) polymerase (PARP) as apoptotic markers, nitrotyrosine (NT) as an inducible nitric oxide synthases (iNOS)-related oxidative stress marker, 4-hydroxynonenal (4-HNE) as a lipid peroxidation marker, CD-31 and Ki-67 as angiogenic and cell proliferation markers, cyclooxygenase-2 (COX-2) as an inflammatory and angiogenic factor, and iNOS and TNF-α as cytokines related to immune activity were each observed by avidin-biotin-peroxidase (ABC)-based immunohistochemical methods.
# [11] = test system: NCI-H520 cell xenograft nude mice; assay: NCI-H520 xenograft nude mice: splenic and peritoneal NK cell activity; assay type: in vivo, athymic nude mice; conditions: vs tumor xenograft control, 35 days
# [12] = male, ICR (CrljOri:CD1[ICR]), 28 day
# [13] = male, Sprague-Dawley, rat, plasma, oral, 10 mg/kg, gefitinib 10 mg/kg oral, control (saline) rats
# [14] = male, Sprague-Dawley, rat, plasma, oral, gefitinib 10 mg/kg oral after Lonicera flos 300 mg/kg oral 15 days
# [15] = male, Sprague-Dawley, rat, plasma, 10 mg/kg, gefitinib 10 mg/kg oral, Control
# [16] = male, Sprague-Dawley, rat, plasma, 10 mg/kg, gefitinib 10 mg/kg oral, Lonicera japonica group (15 days pre-treatment)
# [17] = NCI-H520 xenograft nude mice, oral once daily 35 days
# [18] = vs tumor xenograft control, 35 days
structure (smiles),measurement,setting,value
"COc1cc2ncnc(Nc3ccc(F)c(Cl)c3)c2cc1OCCCN1CCOCC1 [Gefitinib, gefitinib]",ALB,[1],1.39 ± 0.25a g/dL
same,ALP,[1],107.00 ± 22.41 IU/L
same,ALT,[1],215.00 ± 33.87d IU/L
same,AST,[1],29.014 ± 23.57d IU/L
same,BIL,[1],0.14 ± 0.05 mg/dL
same,BUN,[1],18.19 ± 0.89 mg/dL
same,CRE,[1],0.39 ± 0.18 mg/dL
same,GLU,[1],92.43 ± 7.93 mg/dL
same,Globulin,[1],3.73 ± 0.39a g/dL
same,K,[1],9.97 ± 0.25 mmol/L
same,PRO,[1],5.11 ± 0.19 g/dL
same,TG,[1],195.71 ± 47.00 mg/dL
same,Autopsy: Liver Discolorization,[2],7/7
same,Autopsy: Liver Discolorization 1+,[2],0/7
same,Autopsy: Liver Discolorization 2+,[2],1/7
same,Autopsy: Liver Discolorization 3+,[2],6/7
same,Autopsy: Liver Normal,[2],0/7
same,Autopsy: Lung Congestion,[2],2/7
same,Autopsy: Lung Congestion 1+,[2],2/7
same,Autopsy: Lung Normal,[2],5/7
same,Autopsy: Lymph nodes Hypertrophy,[2],7/7
same,Autopsy: Lymph nodes Hypertrophy 1+,[2],0/7
same,Autopsy: Lymph nodes Hypertrophy 2+,[2],4/7
same,Autopsy: Lymph nodes Hypertrophy 3+,[2],3/7
same,Autopsy: Lymph nodes Normal,[2],0/7
same,Autopsy: Others Normal,[2],7/7
same,Autopsy: Spleen Hypertrophy,[2],7/7
same,Autopsy: Spleen Hypertrophy 1+,[2],0/7
same,Autopsy: Spleen Hypertrophy 2+,[2],4/7
same,Autopsy: Spleen Hypertrophy 3+,[2],3/7
same,Autopsy: Spleen Normal,[2],0/7
same,change in serum IFN-γ content,[3],−0.62%
same,change in serum IL-6 content,[3],2.09%
same,"Mortality, Days of treatment Periods (Day 0~27)","[4]; male, ICR (CrljOri:CD1[ICR])",0
same,Clinical signs: Any abnormal signs,[4]; [12],0/7 (0%)
same,Clinical signs: Normal appearance,[4]; [12],7/7 (100%)
same,"Mortality, At termination (at end of 28 days of administration)",[4]; [12],0
same,"Mortality, Total",[4]; [12],0/7 (0%)
same,"Body weight gain, Day 0~Day 14",[4],6.53 ± 0.65
same,"Body weight gain, Day 0~Day 28",[4],3.26 ± 0.57b
same,"Body weight gain, Day 14~Day 27",[4],1.80 ± 0.62
same,concentration at 0.5 h,[5]; [13],703 ng/mL
same,concentration at 1 h,[5]; [13],805 ng/mL
same,concentration at 3 h,[5]; [13],762 ng/mL
same,concentration at 7 h,[5]; [13],824 ng/mL
same,concentration at 10 h,[5]; [13],439 ng/mL
same,concentration at 24 h,[5]; [13],70 ng/mL
same,concentration at 0.5 h,[5]; [14],571 ng/mL
same,concentration at 1 h,[5]; [14],645 ng/mL
same,concentration at 3 h,[5]; [14],531 ng/mL
same,concentration at 7 h,[5]; [14],579 ng/mL
same,concentration at 10 h,[5]; [14],430 ng/mL
same,concentration at 24 h,[5]; [14],53 ng/mL
same,concentration at […],"[5]; male, Sprague-Dawley, rat, plasma, oral, gefitinib 10 mg/kg oral after Lonicera flos 300 mg/kg oral 15 days, […]",274 ng/mL
same,AUC(0-t),[5]; [15],10800 ng·h/mL
same,Cmax,[5]; [15],921 ng/mL
same,Tmax,[5]; [15],3.55 h
same,half-life,[5]; [15],5.05 h
same,AUC(0-t),[5]; [16],8740 ng·h/mL
same,Cmax,[5]; [16],736 ng/mL
same,Tmax,[5]; [16],2.89 h
same,half-life,[5]; [16],4.84 h
same,time of maximum plasma concentration after administration,"[5]; orally administered, rats",about 4 hours
same,Tumor volume First administration [A],"[6]; NCI-H520 xenograft nude mice, baseline",459.88 ± 129.50 mm^3
same,Tumor mass absolute weight,[6]; [17],1.321 ± 0.191 g
same,Tumor volume Sacrifice [B],[6]; [17],2486.04 ± 480.24a mm^3
same,change of the amount of change in tumor volume,"[6]; vs tumor xenograft group, 5 weeks",−68.18%
same,change in tumor absolute weight,"[6]; vs tumor xenograft group, 35 days",−47.72%
same,Spleen Total thickness,[7]; [17],1097.00 ± 237.39a μm/central regions
same,Spleen White pulp diameters,[7]; [17],334.72 ± 47.47e μm/white pulp
same,Spleen White pulp numbers,[7]; [17],6.13 ± 1.81e /mm2
same,Spleen absolute weight,[7]; [17],0.059 ± 0.010a
same,Submandibular lymph node Cortex lymphoid cell follicle numbers,[7]; [17],7.50 ± 2.39a /mm2
same,Submandibular lymph node Cortex thickness,[7]; [17],155.92 ± 34.47a μm/lymph node
same,Submandibular lymph node Total thickness,[7]; [17],441.48 ± 114.06a μm/central regions
same,Submandibular lymph node absolute weight,[7]; [17],0.003 ± 0.001a
same,change in cortex lymphoid cell follicle numbers,[7]; vs tumor xenograft control,15.38%
same,change in submandibular lymph node total thickness,[7]; vs tumor xenograft control,−8.92%
same,change in total splenic thickness,[7]; vs tumor xenograft control,−1.17%
same,change in splenic absolute weight,[7]; [18],−1.46%
same,change in submandibular lymph node absolute weight,[7]; [18],4.00%
same,Splenic Interleukin-1β content,[8]; [17],7.82 ± 2.32 days
same,Splenic Interleukin-10 content,[8]; [17],23.39 ± 12.60a
same,change in content of splenic IL-1β,[8]; [18],−3.08%
same,change in content of splenic IL-10,[8]; [18],−7.27%
same,change in content of splenic TNF-α,[8]; [18],−4.79%
same,change in SOD activity in the liver tissue,[9],−81.18%
same,change in content of GSH in the liver tissue,[9],−69.14%
same,change in liver lipid peroxidation,[9],129.64%
same,Histopathology: Fundus Normal,[10],5/7
same,Histopathology: Fundus fCV 1+ (local cysts),[10],2/7
same,Histopathology: Liver IF 1+ (inflammatory cell infiltration),[10],0/7
same,Histopathology: Liver IF-FN 1+ (infiltration with local necrosis),[10],0/7
same,Histopathology: Liver IF-FN 2+,[10],1/7
same,Histopathology: Liver IF-FN 3+,[10],6/7
same,Histopathology: Liver Normal,[10],0/7
same,Histopathology: Lung CG 1+ (hyperemia),[10],1/7
same,Histopathology: Lung Normal,[10],6/7
same,Histopathology: Lymph nodes Normal,[10],0/7
same,Histopathology: Lymph nodes dHP 1+ (diffused lymphocyte hyperplasia),[10],0/7
same,Histopathology: Lymph nodes dHP 2+,[10],4/7
same,Histopathology: Lymph nodes dHP 3+,[10],3/7
same,Histopathology: Others Normal,[10],7/7
same,Histopathology: Spleen Normal,[10],0/7
same,Histopathology: Spleen rHP 1+ (red pulp lymphocyte hyperplasia),[10],0/7
same,Histopathology: Spleen rHP 2+,[10],3/7
same,Histopathology: Spleen rHP 3+,[10],4/7
same,change in the viability of NCI-H520 cells vs vehicle control,NCI-H520 cells; gefitinib 0.001 μM,−3.29%
same,change in the viability of NCI-H520 cells vs vehicle control,NCI-H520 cells; gefitinib 0.01 μM,−7.47%
same,change in the viability of NCI-H520 cells vs vehicle control,NCI-H520 cells; gefitinib 0.1 μM,−17.73%
same,change in the viability of NCI-H520 cells vs vehicle control,NCI-H520 cells; gefitinib 1 μM,−29.55%
same,change in the viability of NCI-H520 cells vs vehicle control,NCI-H520 cells; gefitinib 5 μM,−53.53%
same,change in the viability of NCI-H520 cells vs vehicle control,NCI-H520 cells; gefitinib 10 μM,−62.71%
same,change in the viability of NCI-H520 cells vs vehicle control,NCI-H520 cells; gefitinib 50 μM,−71.11%
same,change in peritoneal NK cell activity,[11],−4.12%
same,change in splenic NK cell activity,[11],−6.16%
